Source: PMC6271602, “PBDE: Structure-Activity Studies for the Inhibition of Hepatitis C Virus NS3 Helicase” (Molecules, 2014)
Where two headings read alike, the source gives them in different places.

Legend:
[1] = target: T1, NS3 ATPase activity (HCV NS3 protein) (Hepatitis C virus genotype 1b, UniProt Q9WMX2); assay: Radioisotope labeling ATP hydrolysis (ATPase) assay; assay type: biochemical; conditions: for NS3 ATPase inhibition (result in words): structure-activity discussion of Table 2
Method: (§1) Following our previous report, unless otherwise stated, the standard assay reaction (10 μL) contained the following components: 25 mM MOPS-NaOH (pH 7.0), 1 mM DTT, 5 mM MgCl2, 5 mM CaCl2, 1 mM [γ-^32P] ATP, 300 nM NS3, and 0.1 μg/μL poly(U) with serial dilution of the tested compounds in DMSO. Samples were incubated at 37 °C for 10 min, and the reaction was terminated by adding 15 μL of stop solution (10 mM EDTA). A small portion (2 μL) of reaction mixture was spotted on a PEI-cellulose TLC plate (Merck Millipore, Darmstadt, Germany) and developed by ascending chromatography in 0.75 M LiCl/1 M formic acid solution for 25 min. The TLC plate was then air-dried, and applied to autoradiography measured by an Image Reader FLA-9000 and quantified by Multi Gauge V3.11 software (Fujifilm, Tokyo, Japan). For the bacterial alkaline phosphatase assay, the buffer provided with the kit (Takara Bio, Otsu, Japan) was used, and then subjected to the assay as described above.

[2] = target: T2, bacterial alkaline phosphatase (Escherichia coli, UniProt P00634); assay: ATPase assay with bacterial alkaline phosphatase (specificity); assay type: biochemical; conditions: highest concentration tested, 200 μM
T2 construct: purchased Takara Bio BAPC75
T2 sequence (P00634 22-471): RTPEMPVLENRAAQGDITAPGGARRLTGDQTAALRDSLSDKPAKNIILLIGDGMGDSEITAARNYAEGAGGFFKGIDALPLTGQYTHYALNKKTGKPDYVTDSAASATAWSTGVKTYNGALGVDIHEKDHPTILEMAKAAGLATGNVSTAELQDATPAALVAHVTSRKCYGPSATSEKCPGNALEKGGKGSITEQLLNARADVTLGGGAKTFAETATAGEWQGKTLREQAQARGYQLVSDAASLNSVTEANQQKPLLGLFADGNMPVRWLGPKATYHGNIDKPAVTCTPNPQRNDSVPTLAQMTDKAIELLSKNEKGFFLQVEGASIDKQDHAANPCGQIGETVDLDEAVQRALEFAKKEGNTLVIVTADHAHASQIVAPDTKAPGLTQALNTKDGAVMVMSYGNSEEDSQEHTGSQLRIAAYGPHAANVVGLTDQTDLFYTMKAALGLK
Method: as §1

[3] = tested on: subgenomic replicon RNA of genotype 1b N strain; assay: HCV replication assay (subgenomic replicon, luciferase); assay type: cell-based; conditions: Hepatitis C virus, genotype 1b strain N replicon, 72 h, read-out: suppression of HCV replication, EC50
Method: The cell lines harboring the subgenomic replicon RNAs of genotype 1b strain N [27] were seeded at 2 × 10^4 cells per well in a 48-well plate 24 h before treatment. The cells were treated with PBDE at various concentrations for 72 h and lysed in cell culture lysis reagent (Promega). A luciferase assay system (Promega) was used to determine the luciferase activity, and the luminescence was measured using Luminescencer-JNR AB-2100 (ATTO, Tokyo, Japan), corresponding to the expression level of the HCV replicon.

Toxicity assay (MTS) = assay type: cell-based; conditions: cell lines harboring the subgenomic replicon RNAs, replicon cells, read-out: cytotoxic effect, CC50
Method: MTS assay was carried out to determine cytotoxicity using a CellTiter 96 aqueous one-solution cell proliferation assay kit (Promega) according to the manufacturer’s instructions.

[4] = target: T1, NS3 ATPase activity (HCV NS3 protein); assay: Radioisotope labeling ATP hydrolysis (ATPase) assay; assay type: biochemical; conditions: PBDE 0.1 mM, NS3 600 nM, 1 mM ATP
HCV NS3 helicase = HCV NS3 helicase (Hepatitis C virus genotype 1b, UniProt Q9WMX2); assay type: biochemical; conditions: FRET screening; strongest of 41 extracts
HCV NS3 helicase, sequence (Q9WMX2 1027-1657): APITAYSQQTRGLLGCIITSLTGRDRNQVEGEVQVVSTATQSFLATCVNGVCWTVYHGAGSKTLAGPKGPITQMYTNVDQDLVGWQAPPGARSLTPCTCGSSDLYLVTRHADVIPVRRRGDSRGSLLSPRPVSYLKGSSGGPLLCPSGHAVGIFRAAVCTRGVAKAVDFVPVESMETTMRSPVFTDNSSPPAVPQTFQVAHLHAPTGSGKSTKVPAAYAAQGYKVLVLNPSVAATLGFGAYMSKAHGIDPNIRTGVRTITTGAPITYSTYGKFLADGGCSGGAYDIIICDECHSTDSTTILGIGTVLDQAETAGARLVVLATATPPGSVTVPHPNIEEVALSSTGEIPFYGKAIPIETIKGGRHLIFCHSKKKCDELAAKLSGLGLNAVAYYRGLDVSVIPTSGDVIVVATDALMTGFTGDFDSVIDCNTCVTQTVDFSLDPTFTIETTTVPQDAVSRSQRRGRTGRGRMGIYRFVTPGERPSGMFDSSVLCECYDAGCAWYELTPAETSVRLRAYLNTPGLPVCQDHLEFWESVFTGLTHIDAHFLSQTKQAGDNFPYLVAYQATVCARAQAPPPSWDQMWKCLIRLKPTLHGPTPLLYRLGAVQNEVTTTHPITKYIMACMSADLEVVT

NS3 RNA binding = NS3 RNA binding (Hepatitis C virus genotype 1b, UniProt Q9WMX2); assay: Gel mobility shift assay (NS3 binding to ssRNA)
NS3 RNA binding, sequence (Q9WMX2 1027-1657): as above
Method: GMSA was performed with slight modification as described previously. In brief, [γ-^32P] ATP-labeled single-stranded RNA (0.4 nM) was incubated in a buffer containing 30 mM Tris-HCl pH 7.5, 100 mM NaCl, 2 mM MgCl2, 1 mM DTT, 20 U of RNasin plus (Promega) in the presence of 300 nM NS3 protein with serial dilution of PBDE in DMSO at room temperature for 15 min in a final reaction volume of 20 μL. The protein-RNA complexes were loaded onto a 6% native-PAGE (acrylamide:bis = 19:1) and after electrophoresis in TBE buffer, the labeled RNA bands were visualized and quantified with an Image Reader FLA-9000 (Fujifilm) and Multi Gauge V3.11 software (Fujifilm), respectively.

[5] = 300 nM NS3, 1 mM [γ-32P] ATP, read-out: NS3 ATPase Inhibition IC50

T1 sequence (Q9WMX2 1027-1657): as above

Compound	IC50 [1] [µM]	NS3 ATPase inhibition (result in words) [1]	also measured
COc1cc(Br)cc(Br)c1Oc1ccc(Br)cc1Br [Compound 2, PBDE methyl ether]	> 200	complete loss of the inhibitory activity	
Oc1ccc2cc(Br)ccc2c1Br [Compound 10, 1,6-dibromo-2-naphthol]	> 200	did not exhibit the inhibitory activity	
Oc1ccc2cc(Br)ccc2c1-c1c(O)ccc2cc(Br)ccc12 [Compound 8, (R)-(−)-6,6'-dibromo-1,1'-bi-2-naphthol]		most potent activity	IC50 [1, 5]: 54 µM
Oc1cc(Br)cc(Br)c1Oc1ccc(Br)cc1Br [Compound 1, 6-hydroxy-2,2',4,4'-tetrabromodiphenyl ether]	80		inhibition of ATPase activity of bacterial alkaline phosphatase [2]: no inhibition; EC50 [3]: 3.3 µM; CC50 at 72 h (Toxicity assay (MTS)): > 5 µM; NS3 ATPase inhibition in presence and absence of poly(U) RNA [4]: significantly active in both the presence and absence of poly(U); inhibition of NS3 helicase activity (HCV NS3 helicase): 37%; IC50 (NS3 RNA binding): 68 µM
Oc1cc(Cl)ccc1Oc1ccc(Cl)cc1Cl [Compound 4, triclosan, reference compound]	150	moderate levels of inhibition	
CC(C)(c1cc(Cl)c(O)c(Cl)c1)c1cc(Cl)c(O)c(Cl)c1 [Compound 9, tetrachlorobisphenol A]	94	same level of inhibition as that of bromophene 3	
Oc1c(Br)cc2c(c1-c1c(O)c(Br)cc3c1CCCC3)CCCC2 [Compound 13, (R)-(+)-3,3'-dibromo-5,5',6,6',7,7',8,8'-octahydro-1,1'-bi-2,2'-naphthalenediol]		no activity	IC50 [1, 5]: > 200 µM
Oc1c(F)c(F)c(-c2c(F)c(F)c(F)c(F)c2F)c(F)c1F [Compound 11, 2,3,5,6-tetrafluoro-4-(pentafluorophenyl)phenol]	> 200	inactive	
Oc1c(Br)cc(Br)cc1Br [Compound 5, 2,4,6-tribromophenol]	> 200	did not exhibit the inhibitory activity	
Oc1c(Br)cc2ccccc2c1-c1c(O)c(Br)cc2ccccc12 [Compound 12, (R)-(+)-3-3'-dibromo-1,1'-bi-2-naphthol]		no activity	IC50 [1, 5]: > 200 µM
CC(C)(c1cc(Br)c(O)c(Br)c1)c1cc(Br)c(O)c(Br)c1 [Compound 6, 3,3',5,5'-tetrabromobisphenol A]	120	same level of inhibition as that of bromophene 3	
Oc1ccccc1-c1ccccc1 [Compound 7, O-hydroxybiphenyl]	> 200	loss of the inhibitory activity	
Oc1ccc(Cl)cc1-c1cc(Cl)c(Cl)c(Cl)c1Cl [Compound 15, 2-Hydroxy-2',3',4',5,5'-pentachlorobiphenyl]	54	most potent inhibitory activity of all the analogs in this study	
Brc1ccc(Oc2ccc(Br)cc2Br)c(Br)c1 [Compound 17, 2,2',4,4'-tetrabromodiphenyl ether]	> 200	complete loss of the inhibitory activity	
Oc1c(-c2ccccc2)cc(-c2ccc(Br)cc2)cc1-c1ccccc1 [Compound 16, 4-(4-bromophenyl)-2,6-diphenylphenol]		did not show inhibitory activity	IC50 [1, 5]: > 200 µM
Oc1c(Br)cc(Br)cc1-c1cc(Br)cc(Br)c1O [Compound 3, Bromophene]	94	remained at the same level as that of PBDE (1)	
CC(C)(c1cc(Br)c(OCCO)c(Br)c1)c1cc(Br)c(OCCO)c(Br)c1 [Compound 14, 4,4'-isopropylidenebis[2-(2,6-dibromophenoxy)ethanol]]	> 200	loss of activity	
